# From patent US7452717B2, “Compositions and methods for sensitizing and inhibiting growth of human tumor cells” (St. Jude Children's Research Hospital, priority 1998, dated 2008)
# Entries after “also recorded” stand apart in the source; their conditions may differ. Like-named read-outs stand apart in the source and are kept apart here.
# Experiments:
# [1] = molecular target: topoisomerase I (Homo sapiens, UniProt P11387); settings: cited from earlier work
# [2] = molecular target: T1, human liver CE (hCE1) (Homo sapiens, UniProt P23141); experiment: CPT-11 conversion assay, COS-7 cells expressing hCE1; assay type: in vitro ADME; settings: plasmid pCIHUMCAR, enzyme hCE1
# T1 construct: expressed in transfected cells; host or cells: COS-7 (sonicates of transiently transfected cells)
# [3] = tested on: human NB-1691 xenografts; experiment: NB-1691 xenograft model for MRD; assay type: in vivo, mice; settings: 10 mg/kg CPT-11 daily for 5 days on two consecutive weeks
# Text: However, within 4-6 weeks, tumors are palpable in the exact position where the original xenograft was implanted. Since these tumors arise from cells that survived the initial cycle of chemotherapy, this model therefore mimics results seen in patients following surgical resection of the primary tumor and subsequent regrowth at the same site.
# [4] = tested on: pig liver CE; experiment: CPT-11 metabolism by commercially available pig liver CE; settings: commercially available partially purified pig liver CE
# Text: (§1) This screening included enzymes from a series of sera, cell extracts and commercially available CEs using a rapid fluorometric assay.
# [5] = tested on: Rh30 xenografts; experiment: Rh30 rhabdomyosarcoma xenografts (no CE) in SCID mice; assay type: in vivo; settings: Rh30 xenografts not expressing CE, 2.5 mg CPT-11/kg/day, 5 days/week for 2 weeks, every 21 days, three cycles
# Method: (§2) The tumor growth rate is depicted on the Y-axis of each graph in terms of tumor volume and is plotted as a function of time in weeks (X-axis).
# (§3) In this preclinical model, expression of the transfected cDNA for rabbit CE was maintained for at least 12 weeks.
# (§4) Experiments were performed in this model to compare the responses of mice bearing human Rh30 and Rh30pIRESrabbit xenografts. Rh30 rhabdosarcoma xenografts were transfected with pIRESneo plasmid containing the cDNA for rabbit liver CE and selected with G418. Expression of CE was confirmed by biochemical assay using the CE substrate o-NPA and maintained for at least 12 weeks. Two groups of SCID mice were then injected with the transfected Rh30pIRESrabbit cells subcutaneously into the flanks. A third group of control mice was injected in identical fashion with Rh30 cells not transfected with the plasmid.
# [6] = tested on: Cos7 cells expressing rabbit liver CE; experiment: Cell survival of Cos7 cells transiently transfected with rabbit CE (pCIRABFL); assay type: cell-based, monkey; settings: control Cos7 cells versus Cos7 cells transfected with CE
# Text: To confirm that the cDNA encoded CE, the 1.7 kb EcoRI fragment was ligated into pCIneo to generate pCIRABFL and the plasmid transiently transfected into Cos7 cells. pCIneo contains the SV40 origin of replication allowing plasmid amplification in cells expressing the large T antigen, such as Cos7.
# [7] = tested on: COS-7 cells expressing hiCE; experiment: Growth inhibition, COS-7 cells expressing hiCE; assay type: cell-based, monkey; settings: Primates, read-out: IC50 (CPT-11), 2 h exposure, three days growth
# Method: (§5) Growth inhibition assays were performed with COS-7 cells as previously described (Potter et al. 1998 Cancer Res. 52:2646-2651; Danks et al. 1998 Cancer Res. 52:2646-2651,1998). Forty-eight hours after transfection, 5×10^4 cells were plated into 1.5 cm diameter dishes and allowed to attach overnight. […] Cell number was determined by counting using a Coulter Multisyser II (Coulter Electronics, Luton, England) and growth inhibition curves were plotted using Prism software (GraphPad Software Inc., San Diego, Calif.).
# [8] = tested on: CEs purified from human tissues; settings: cited from earlier work
# [9] = molecular target: rabbit liver CE (Oryctolagus cuniculus, UniProt P12337); settings: commercially available partially purified rabbit liver CE
# Text: as §1
# [10] = tested on: Rh30pIRESrabbit xenografts (expressing rabbit CE); experiment: Rh30pIRESrabbit rhabdomyosarcoma xenografts in SCID mice; assay type: in vivo; settings: 2.5 mg CPT-11/kg/day, 5 days/week for 2 weeks, every 21 days, three cycles
# Method: as §2, §3, §4
# [11] = tested on: Rh30 cells; experiment: Growth inhibition of Rh30 cells by CPT-11 pre-incubated with rabbit liver CE; assay type: cell-based, human
# Text: Another aspect of the present invention relates to the ability of compositions comprising a polynucleotide encoding a carboxylesterase and a disease-specific responsive promoter of selected tumor cells to sensitize the tumor cells to a chemotherapeutic prodrug. The ability of a rabbit CE or a human intestinal CE of the present invention to sensitize human tumor cells to CPT-11 was examined. Experiments were first performed to confirm that the metabolite produced by the activity of a CE of the present invention is biologically active in vitro. Rh30 cells were exposed to the products of each reaction for one hour and the percentage of growth inhibition was determined. […] Similar confirmatory experiments were performed with COS-7 cells.
# Each reaction mixture was then filter-sterilized and Rh30 cells were exposed to drug for one hour, at which time the medium was replaced with drug-free medium containing serum. […] Cells were allowed to grow for 3 cell doubling times and cell numbers were determined.
# [12] = tested on: U373 glioblastoma xenografts expressing rabbit liver CE; experiment: U373 glioblastoma xenografts expressing rabbit CE in SCID mice; assay type: in vivo; settings: CPT-11 7.5 mg/kg/day, three cycles
# Text: (§6) The tumor growth rate is depicted on the Y-axis in terms of tumor volume and is plotted as a function of time in weeks (X-axis). Open circles depict the tumor volume of untreated U373 xenografts expressing rabbit CE. Filled triangles depict the response of control xenografts (no rabbit CE) treated with CPT-11. Filled squares depict the response of cells expressing rabbit CE and treated with CPT-11. […] Each point represents the mean of 14 tumors in 7 individual mice.
# (§7) Similar studies were performed employing U373 glioblastoma cells transfected with the pIRESneo plasmid or with pIRESneo containing the cDNA for rabbit liver CE and selected with G418. Expression of CE in the tumor cells was confirmed by biochemical assay using the substrate o-NPA. Cells were injected subcutaneously into the flanks of the SCID mice.
# [13] = tested on: U373 glioblastoma xenografts transfected with control plasmid; experiment: U373 glioblastoma xenografts with control plasmid in SCID mice; assay type: in vivo; settings: U373 xenografts with control plasmid (no rabbit CE), CPT-11 7.5 mg/kg/day, three cycles
# Text: as §6, §7
# [14] = tested on: Rh18 RMS xenografts; settings: cited from earlier work
# [15] = molecular target: T2, rabbit liver CE (Oryctolagus cuniculus, UniProt P12337); assay type: in vitro ADME; set-up: To amplify a full length rabbit CE cDNA, oligonucleotide primers RabNTERM; expressed in transfected cells; host or cells: COS-7 (sonicates of transiently transfected cells); settings: COS-7 cells, plasmid pCIRAB, enzyme rabbit
# T2 sequence (P12337 19-565): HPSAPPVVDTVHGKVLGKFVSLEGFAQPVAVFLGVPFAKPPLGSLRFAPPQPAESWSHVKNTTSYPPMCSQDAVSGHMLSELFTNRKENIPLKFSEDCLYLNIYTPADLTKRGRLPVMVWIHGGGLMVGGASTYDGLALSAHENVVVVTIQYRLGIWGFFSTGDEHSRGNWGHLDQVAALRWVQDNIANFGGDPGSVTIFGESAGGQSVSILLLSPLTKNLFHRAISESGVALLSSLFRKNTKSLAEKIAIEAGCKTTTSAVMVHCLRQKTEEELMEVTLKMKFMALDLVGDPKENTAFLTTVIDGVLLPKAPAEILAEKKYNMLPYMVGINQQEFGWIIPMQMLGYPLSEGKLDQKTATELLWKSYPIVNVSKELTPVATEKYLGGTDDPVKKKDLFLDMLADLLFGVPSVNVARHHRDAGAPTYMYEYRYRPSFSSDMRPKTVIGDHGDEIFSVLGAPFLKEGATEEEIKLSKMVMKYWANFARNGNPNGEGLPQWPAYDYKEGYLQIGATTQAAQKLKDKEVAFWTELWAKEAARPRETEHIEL
# [16] = tested on: COS-7 cells transfected with the parent plasmid; experiment: Growth inhibition, COS-7 cells transfected with parent plasmid; assay type: cell-based, monkey; settings: Primates, read-out: IC50 (CPT-11); COS-7 cells transfected with the parent plasmid (pCEneo)
# Method: as §5
# [17] = tested on: U-373 glioma cells expressing rabbit liver CE; experiment: Growth inhibition by APC, U-373 glioma cells expressing rabbit liver CE; assay type: cell-based, human; settings: U-373 cells expressing rabbit liver CE, 2 h exposure (FIG. 7)
# Method: FIG. 7 is a linegraph showing a comparison of the sensitization, depicted as % survival on the Y-axis, of U-373 glioma cells exposed to APC, depicted as log[APC] at concentrations from 10^−8 to 10^−5 M on the X-axis, from in situ expression of rabbit liver CE (filled squares) and human alveolar macrophage CE (filled circles). Cells were exposed for 2 hours to APC.
# (§8) No known human enzyme activates APC. […] Thus, the combination of APC and sensitization of selected tumor cells with rabbit liver CE as described above can be used to produce a tumor-specific cell death while greatly minimizing the toxic side effects associated with administration of chemotherapy.
# [18] = molecular target: T2, rabbit liver CE; assay type: biochemical; set-up: To amplify a full length rabbit CE cDNA, oligonucleotide primers RabNTERM; expressed in transfected cells; settings: in vitro, rabbit CE (FIG. 6)
# Text: FIG. 6 is a linegraph showing the conversion of APC, depicted on the X-axis at nanomolar concentrations, to SN-38, depicted on the Y-axis at nanomolar concentrations, in vitro by the activity of rabbit liver CE given at doses of 0 (filled cross), 10 (filled hexagon), 25 (filled triangle), 50 (filled circle) or 100 (filled square) units. Data presented represent the mean response at each dose level.
# as §8
# [19] = in humans; cited from earlier work
# topoisomerase I, sequence (P11387 whole entry): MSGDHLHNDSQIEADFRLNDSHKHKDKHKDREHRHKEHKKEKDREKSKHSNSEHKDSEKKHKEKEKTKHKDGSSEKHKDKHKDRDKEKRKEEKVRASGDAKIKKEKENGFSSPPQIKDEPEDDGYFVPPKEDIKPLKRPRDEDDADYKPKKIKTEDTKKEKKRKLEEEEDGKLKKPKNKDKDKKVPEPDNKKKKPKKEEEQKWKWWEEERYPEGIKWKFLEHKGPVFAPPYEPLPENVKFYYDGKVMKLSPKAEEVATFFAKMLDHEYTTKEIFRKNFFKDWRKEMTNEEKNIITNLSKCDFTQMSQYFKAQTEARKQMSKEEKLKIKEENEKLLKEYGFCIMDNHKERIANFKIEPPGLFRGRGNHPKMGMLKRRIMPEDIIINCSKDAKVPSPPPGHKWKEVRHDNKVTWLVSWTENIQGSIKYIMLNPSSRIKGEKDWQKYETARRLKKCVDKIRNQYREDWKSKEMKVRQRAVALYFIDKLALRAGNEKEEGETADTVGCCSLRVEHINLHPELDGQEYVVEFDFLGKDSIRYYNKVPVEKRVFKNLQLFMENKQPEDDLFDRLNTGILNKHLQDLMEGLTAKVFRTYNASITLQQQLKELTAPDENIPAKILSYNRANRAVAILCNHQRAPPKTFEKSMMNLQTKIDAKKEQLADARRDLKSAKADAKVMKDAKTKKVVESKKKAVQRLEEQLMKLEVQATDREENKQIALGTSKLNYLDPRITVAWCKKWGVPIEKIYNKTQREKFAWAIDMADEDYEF
# T1 sequence (P23141 18-567): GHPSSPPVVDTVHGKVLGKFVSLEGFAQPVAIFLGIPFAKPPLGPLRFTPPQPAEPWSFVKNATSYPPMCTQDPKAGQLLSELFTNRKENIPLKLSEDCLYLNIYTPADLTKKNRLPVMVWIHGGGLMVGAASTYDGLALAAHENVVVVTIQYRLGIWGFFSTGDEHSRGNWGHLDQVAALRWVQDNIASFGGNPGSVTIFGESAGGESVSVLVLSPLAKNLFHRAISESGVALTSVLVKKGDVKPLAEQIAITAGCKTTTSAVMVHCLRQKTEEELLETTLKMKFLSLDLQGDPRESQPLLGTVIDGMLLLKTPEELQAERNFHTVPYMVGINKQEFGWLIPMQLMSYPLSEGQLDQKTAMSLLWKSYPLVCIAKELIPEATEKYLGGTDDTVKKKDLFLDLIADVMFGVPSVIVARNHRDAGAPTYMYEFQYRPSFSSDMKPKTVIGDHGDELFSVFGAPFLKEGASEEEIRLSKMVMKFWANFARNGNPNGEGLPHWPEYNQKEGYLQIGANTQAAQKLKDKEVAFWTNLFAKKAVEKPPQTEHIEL
smiles,measurement,setting,value
"CCc1c2c(nc3ccc(O)cc13)-c1cc3c(c(=O)n1C2)COC(=O)[C@]3(O)CC [SN-38, 7-ethyl-10-hydroxy-camptothecin]",inhibition of topoisomerase I,[1],potent inhibitor of topoisomerase I
"CCc1c2c(nc3ccc(OC(=O)N4CCC(N5CCCCC5)CC4)cc13)-c1cc3c(c(=O)n1C2)COC(=O)[C@]3(O)CC [CPT-11, 7-ethyl-10-[4-(1-piperidino)-1-piperidino]carbonyloxycamptothecin]",CPT-11 Conversion,[2],9.6 pmol/h/mg
same,time until tumors are palpable again at the original site,[3],4-6 weeks
same,tumor response,[3],complete regression of the tumor
same,metabolism of CPT-11,[4],metabolized CPT-11 efficiently
same,tumor response,[5],"regressed only transiently, regrowing within one week after CPT-11 treatment had stopped; also recorded: initial regression but regrowth; also recorded: regressed only transiently with CPT-11 treatment, with regrowth occurring within one week after CPT-11 treatment stopped"
same,"difference in sensitivity to CPT-11 (% cell survival, FIG. 5)",[6],approximately 350 fold
same,IC50,[7],500 nM
same,prodrug converted to active drug (SN-38),[8],less than 5%
same,metabolism of CPT-11,[9],metabolized CPT-11 efficiently
same,tumor response,[10],"regressed completely and did not regrow during the 12 weeks of the study; also recorded: complete tumor regression, even out to 12 weeks"
same,inhibition at 1 µM,"[11]; Homo sapiens, Rh30, 1 h, read-out: inhibition of cell growth",30 to 60%
same,inhibition of cell growth,"[11]; Rh30 cells, 1 to 5 units of CE inactivated by heating",no inhibition of cell growth
same,tumor response,[12],regressed completely; also recorded: tumor regression was seen only in treated cells expressing rabbit CE
same,tumor response,[13],stable disease with no significant regression; also recorded: stable disease but no significant regression
same,tumor response,"[14]; 10 mg/kg/day, same schedule",only partial tumor regression
same,tumor response,[14]; 20 mg of CPT-11/kg/day daily for 5 days for two weeks,complete regression
same,CPT-11 Conversion,[15],2323.0 pmol/h/mg
same,IC50,[16],5400 nM
CCc1c2c(nc3ccc(OC(=O)N4CCC(NCCCCC(=O)O)CC4)cc13)-c1cc3c(c(=O)n1C2)COC(=O)[C@]3(O)CC [APC],sensitization to growth inhibitory effects of APC,[17],sensitized to the growth inhibitory effects of APC
same,conversion of APC to SN-38,[18],converted to SN-38 in a concentration-dependent manner
same,conversion to an active metabolite,[19],not converted to an active metabolite in humans
